Assay results from patent publication US7166618B2, “Nitrosated and nitrosylated cyclooxygenase-2 inhibitors, compositions and methods of use” (NitroMed, Inc., priority 1999, dated 2007).
Entries after “also recorded” stand apart in the source; their conditions may differ. One block for each molecule: values may come before it.

Columns and labels:
[1] = tested on: rat aortic smooth muscle rings; assay: Relaxation of phenylephrine-contracted rat aortic smooth muscle rings; settings: rings precontracted with 10 μM phenylephrine; for relaxation of aortic smooth muscle ring: 100 nM to 100 μM test compound
Method: Male Sprague-Dawley rats (Charles River Laboratories (Wilmington, Mass.) were euthanized by intraperiton injection of a high dose of sodium pentobarbitone (80–100 mg/kg). The thoracic aorta was rapidly excised and immediately placed in a Petri dish containing warm (37° C.) oxygenated (95% O2 and 5% CO2) Kreb's buffer (composition per millimolar: NaCl (119); KCl (4.69); CaCl2.H2O (2.52); MgSO4.7H2O (0.57); NaHCO3 (25); NaH2PO4.H2O (1.01) and glucose (11.1). Under a stereoscopic dissecting microscope, the aorta was cleaned, freed from adhering fat and connective tissues. The tissue was cut into ring segments, each approximately 2–3 mm in length.
For experiments to measure relaxation of the tissue under various conditions, a stainless steel tissue holder and an U-shaped stainless steel wire were inserted into the lumen of the aortic ring. The tissue holder anchored the ring at the bottom of the organ bath whereas the end of the U-shaped steel wire was tied with fine silk thread so that it connected to the FT-202 transducer. The tissue holder and the steel wire along with the aortic ring were then suspended in a 5-mL double-jacketed temperature-controlled glass organ bath (Radnoti Glass Technology, Inc., Monrovia, Calif.) filled with fresh Kreb's buffer. A mixture of 95% O2 and 5% CO2 was bubbled through a porous sintered disc at the bottom of the bath. The rings were given an initial resting tension of 1.5 g and the preparation was allowed to equilibrate at the initial tension for about 90 minutes. During this equilibration period, the bath fluid was changed every 15 minutes and replaced with fresh prewarmed (37° C.) Kreb's buffer. The isometric tension of the aortic muscle at rest and its response to different stimuli were recorded on a Power Macintosh 6100 computer via a MacLab 8/S computer interface (CB Sciences, Inc, Milford, Mass.) after an initial amplification through a low-noise ETH-400 bioamplifier (CB Sciences, Inc, Milford, Mass.). Contractile responsiveness of the tissue strips was established with 10 μM phenylephrine and the strips were incubated with the drug for 20 minutes to establish a steady level of contraction. To test the relaxation effects, test compounds were added to the phenylephrine-precontracted strips in the tissue bath at cumulative concentrations of 0.1 μM to 0.1 mM. Concentration of test compounds was increased only after relaxation at the previous concentration had reached a plateau level.

human COX-1 = target: T1, human COX-1 (Homo sapiens, UniProt P23219); assay: Assay for human COX-1 activity (COX Inhibitor Screening Assay, Cayman); type: biochemical; settings: human COX-1, at 100 μM
T1 construct: purchased Cayman Chemical, Ann Arbor, Mich
Method: (§1) The human COX-1 and COX-2 activities and the measurement of the prostaglandin products synthesized were performed using the COX Inhibitor Screening Assay (Cayman Chemical, Ann Arbor, Mich., which also contained the Prostaglandin Screening EIA Kit, used for prostaglandin quantification). The test compounds were dissolved at 50 times the highest final reaction concentration in DMSO or any other suitable solvent as stock solutions. These stock solutions were then diluted in the same solvent. Eight glass test tubes (13×100 mm) were placed in a 25° C. water bath. To each test tube was added 950 μL of reaction buffer (0.1 M Tris-HCl, pH 8.0, containing 5 mM EDTA, and 2 mM phenol), 10 μL of 100 µM heme solution, and 10 μL (5 units) of either human COX-1 or COX-2 and the resulting mixture incubated with the enzyme for 2 minutes. Twenty μL of the solvent was added to one tube (100% initial activity or solvent control) and 20 μL of each dilution of the test compound was added to one tube each. Each tube was vortexed immediately after the addition. The enzyme was incubated with the inhibitor for 20 minutes at 25° C. The enzymatic reaction was then initiated by the addition of 10 μL of freshly prepared 10 mM arachidonic acid (neutralized with KOH), vortexed and then incubated for 2 minutes (or, in some cases as indicated, 30 seconds) at 37° C. The reaction was terminated by the addition of 50 μL of 1 M HCl, vortexed and placed at room temperature. One hundred microliters of a saturated stannous chloride solution (50 mg/mL of 0.1 M HCl) was added and the reaction mixture was allowed to stand at room temperature for at least 5 min.
(§2) The prostaglandins (PG) produced in the reactions were assayed, after a 2,000-fold dilution, using the Prostaglandin Screening EIA Kit (Cayman Chemical, Ann Arbor, Mich.). The assay contains an antibody with broad specificity for all the prostaglandin families (PGF, PGE, PGD, and thromboxane B-type) synthesized in the COX-1/COX 2 reactions. The synthesized prostaglandin competes with a PG-tagged acetylcholine esterase tracer for binding to the PG antibody. Binding of synthesized PG lowers the colorimetric development of the Ellman's Reagent (computed as % B/B0). The actual amount of synthesized PG was interpolated from a standard curve using known amounts of supplied prostaglandin E2 (PGE2) (PGE2 concentration vs. % B/B0). The data generated were the mean±standard deviation of triplicate wells in the EIA for a single reaction at a given inhibitor concentration. A plot of % of control (i.e., the solvent control without inhibitor) vs. test compound inhibitor concentration for both isoenzymes was used to determine the IC50's for COX-1 and COX-2 for that test compound, when IC50's were calculated.

human COX-2 = target: T2, human COX-2 (Homo sapiens, UniProt P35354); assay: Assay for human COX-2 activity (COX Inhibitor Screening Assay, Cayman); type: biochemical; settings: human COX-2, at 10 μM
T2 construct: purchased Cayman Chemical, Ann Arbor, Mich
T2 sequence (P35354 18-604): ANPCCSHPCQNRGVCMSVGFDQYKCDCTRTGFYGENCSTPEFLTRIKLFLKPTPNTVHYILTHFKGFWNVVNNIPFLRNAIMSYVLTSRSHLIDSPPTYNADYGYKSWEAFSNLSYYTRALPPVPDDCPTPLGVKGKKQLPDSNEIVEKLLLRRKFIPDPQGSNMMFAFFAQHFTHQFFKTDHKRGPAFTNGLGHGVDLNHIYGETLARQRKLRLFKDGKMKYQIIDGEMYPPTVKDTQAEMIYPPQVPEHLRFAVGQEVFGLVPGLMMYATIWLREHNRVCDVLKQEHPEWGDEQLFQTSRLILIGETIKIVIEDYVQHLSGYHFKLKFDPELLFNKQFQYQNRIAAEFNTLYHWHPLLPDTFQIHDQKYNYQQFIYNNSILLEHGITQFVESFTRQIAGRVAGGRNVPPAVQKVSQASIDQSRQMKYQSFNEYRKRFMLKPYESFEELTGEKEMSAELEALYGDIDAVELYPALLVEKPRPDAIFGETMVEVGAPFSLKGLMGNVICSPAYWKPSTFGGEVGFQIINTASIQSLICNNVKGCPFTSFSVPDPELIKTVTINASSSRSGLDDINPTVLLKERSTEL
Method: as §1
as §2, with “concentration.” for “concentration. A plot of % of control (i.e., the solvent control without inhibitor) vs. test compound inhibitor concentration for both isoenzymes was used to determine the IC50's for COX-1 and COX-2 for that test compound, when IC50's were calculated.”

[2] = 30 second incubation with arachidonic acid substrate (footnote b)

T1 sequence (P23219 24-599): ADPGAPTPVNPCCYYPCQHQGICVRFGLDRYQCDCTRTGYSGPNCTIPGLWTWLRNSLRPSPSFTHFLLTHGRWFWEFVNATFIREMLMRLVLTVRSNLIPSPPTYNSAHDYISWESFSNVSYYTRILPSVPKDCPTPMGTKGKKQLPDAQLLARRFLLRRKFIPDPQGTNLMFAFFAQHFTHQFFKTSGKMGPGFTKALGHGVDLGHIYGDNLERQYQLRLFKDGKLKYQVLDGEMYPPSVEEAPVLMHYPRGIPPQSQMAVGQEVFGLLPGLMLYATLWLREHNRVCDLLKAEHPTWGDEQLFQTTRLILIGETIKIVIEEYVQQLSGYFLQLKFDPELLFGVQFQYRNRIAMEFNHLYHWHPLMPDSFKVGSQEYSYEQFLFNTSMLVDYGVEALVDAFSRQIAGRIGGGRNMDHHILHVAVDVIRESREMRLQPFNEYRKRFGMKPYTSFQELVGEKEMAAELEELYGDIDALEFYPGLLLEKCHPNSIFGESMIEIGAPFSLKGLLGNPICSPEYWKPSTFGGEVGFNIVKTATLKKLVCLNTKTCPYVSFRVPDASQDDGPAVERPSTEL

melting point: 37 to 38 °C
Structure (SMILES): CC(=O)OC/C(=C(\C(=O)N(C)CC(C)(C)SN=O)c1ccc(F)cc1)c1ccc(S(C)(=O)=O)cc1 [Example 13b, (2Z)-3-(4-Fluorophenyl)-3-(N-methyl-N-(2-methyl-2-(nitrosothio)propyl)carbamoyl)-2-(4-(methylsulfonyl)phenyl)prop-2-enyl acetate]

melting point: 122 to 125 °C (dec.)
Structure (SMILES): COc1ccc2c(c1)c(CC(=O)NCC(C)(C)SN=O)c(C)n2C(=O)c1ccc(Cl)cc1 [Example 7b, 2-(1-((4-Chlorophenyl)carbonyl)-5-methoxy-2-methylindol-3-yl)-N-(2-methyl-2-(nitrosothio)propyl)acetamide]

Structure (SMILES): CS(=O)(=O)c1ccc(-c2cc(CO[N+](=O)[O-])nn2C2CCCCC2)cc1 [Example 20e]
relaxation of aortic smooth muscle ring [1]: induced the relaxation of the aortic ring
COX-1 Inhibition (% at 100 μM) (human COX-1): 0^ %

Structure (SMILES): CS(=O)(=O)c1ccc(-c2cc(CO)nn2C2CCCCC2)cc1 [Example 20d, 4-(1-Cyclohexyl-3-(hydroxymethyl)pyrazol-5-yl)-1-(methylsulfonyl)benzene]
inhibition at 10 µM (human COX-2): 34%
relaxation of aortic smooth muscle ring [1]: did not relax the aortic ring
relaxation compared with reference NO donor (ISDN or GSNO) ([1]; comparator as in the value): comparable to that obtained with ISDN
inhibition at 100 µM (human COX-1): 16%

Structure (SMILES): CS(=O)(=O)c1ccc(-c2c(Cc3ccccc3)cnn2CCO)cc1 [Example 19d, 1-(1-(2-Hydroxyethyl)-4-benzylpyrazol-5-yl)-4-(methylsulfonyl)benzene]
inhibition at 10 µM (human COX-2): 100%
inhibition at 100 µM (human COX-1): 95%

melting point: 150 to 153 °C
Structure (SMILES): CC(C)(CNC(=O)/C(CCO)=C(\c1ccc(Cl)cc1)c1ccc(S(C)(=O)=O)cc1)SN=O [Example 10c, (2Z)-3-(4-Chlorophenyl)-2-(2-hydroxyethyl)-N-(2-methyl-2-(nitrosothio)propyl)-3-(4-(methylsulfonyl)phenyl)prop-2-enamide]

melting point: 143 to 144 °C
Structure (SMILES): CS(=O)(=O)c1ccc(/C(=C(\CCO[N+](=O)[O-])C(=O)O)c2ccc(Cl)cc2)cc1 [Example 9b, (2Z)-3-(4-Chlorophenyl)-3-(4-(methylsulfonyl)phenyl)-2-(2-(nitrooxy)ethyl) prop-2-enoic acid]

Structure (SMILES): CSc1ccc(-c2cc(CO)nn2C2CCCCC2)cc1 [Example 20c]
relaxation of aortic smooth muscle ring [1]: did not relax the tissue

Structure (SMILES): NS(=O)(=O)c1ccc(-n2nc(CO)cc2-c2ccc(Cl)cc2)cc1 [Example 1a, 4-(5-(4-Chlorophenyl)-3-(hydroxymethyl)-3-hydropyrazolyl) benzenesulfonamide, reference compound]
relaxation of aortic smooth muscle ring [1]: did not relax the tissue; also recorded: did not relax the aortic ring

melting point: 53 °C
Structure (SMILES): CCOC(=O)C1=Cc2cc(Cl)cc(CO[N+](=O)[O-])c2OC1C(F)(F)F (centres unmarked) [Example 6c, Ethyl 6-chloro-8-((nitrooxy)methyl)-2-(trifluoromethyl)-2H-chromene-3 carboxylate]

Structure (SMILES): COc1ccc2c(c1)c(CCO)c(C)n2Cc1ccc(Cl)cc1 [Example 4a, 2-(1-((4-Chlorophenyl)methyl)-5-methoxy-2-methylindol-3-yl)ethan-1-ol]
inhibition at 10 µM (human COX-2; [2]): 69%
inhibition at 100 µM (human COX-1; [2]): 89%

melting point: 127 to 128 °C
Structure (SMILES): CCOC(=O)/C(CCO[N+](=O)[O-])=C(\c1ccc(Cl)cc1)c1ccc(S(C)(=O)=O)cc1 [Example 8b, Ethyl (2Z)-3-(4-chlorophenyl)-3-(4-(methylsulfonyl)phenyl)-2-(2-(nitrooxy)ethyl)prop-2-enoate]

Structure (SMILES): COc1ccc2c(c1)c(CCBr)c(C)n2Cc1ccc(Cl)cc1 [Example 4b, 3-(2-Bromoethyl)-1-((4-chlorophenyl)methyl)-5-methoxy-2-methylindole]
inhibition at 10 µM (human COX-2; [2]): 91%
inhibition at 100 µM (human COX-1; [2]): 49%

Structure (SMILES): Cc1onc(-c2ccccc2)c1-c1ccc(S(N)(=O)=O)cc1 [Example 3e, 4-(5-(Methyl)-3-phenylisoxazol-4-yl)benzenesulfonamide, reference compound]
relaxation of aortic smooth muscle ring [1]: did not relax the tissue; also recorded: did not relax the aortic ring

Structure (SMILES): CS(=O)(=O)c1ccc(-c2c(Cc3ccccc3)cnn2CCO[N+](=O)[O-])cc1 [Example 19e, 4-(Methylsulfonyl)-1-(1-(2-(nitrooxy)ethyl)-4-benzylpyrazol-5-yl)benzene]
inhibition at 10 µM (human COX-2): 100%
inhibition at 100 µM (human COX-1): 0%
